# Measurements: patent US20160243059A1 (UNIST Academy-Industry Research Corporation, priority 2015, published 2016)
# “Also recorded” adds a separate entry of the source.
# Assays:
# Aβ40 [1] = biological target: T1, Aβ40 (Homo sapiens, UniProt P05067); experiment: Mass spectrometry and IM-MS of Aβ40-ligand complexes; type: binding
# T1 construct: Aβ40 and Aβ42 were purchased from AnaSpec (Fremont, Calif., USA); purchased AnaSpec
# Protocol: The resulting solutions were allowed to react for 0, 2, 4, 8, and 24 hours at a temperature of 37° C. The samples were directly injected into the mass spectrometer at a flow rate of […]. ESI interface was operated in positive-ion mode; spray voltage was set at 4.5 kV with capillary temperature at 300° C. and capillary exit voltage at 101 V. Mass spectra were taken in the range of m/z 50 to 500.
# All ion mobility-mass spectrometry (IM-MS) experiments were carried out on a Synapt G2 (Waters, Milford, Mass., USA). Samples were ionized using a nano-electrospray source operated in positive ion mode. MS instrumentation was operated at a backing pressure of 2.7 mbar and a sample cone voltage of 40 V. Data were analyzed using MassLynx 4.1 and DriftScope 2.0 (Waters, Milford, Mass., USA). Collision cross-section (CCS) measurements were calibrated externally using a database of known protein, and protein complex CCS values in helium. Lyophilized Aβ40 peptides (AnaSpec, Fremont, Calif., USA) were prepared to a stock concentration of 25 μM in 1 mM ammonium acetate (pH 7.0). […] After the reaction, all samples were lyophilized overnight prior to re-suspension of the samples in hexafluoro-2-propanol (HFIP, Sigma-Aldrich, St Louis, Mo., USA)([Aβ40]=50 μM) and sonicated under pulse settings for 5 minutes. The samples were diluted 50%, to a final Aβ40 concentration of 25 μM, using 1 mM ammonium acetate (0.5 mM final concentration) immediately prior to mass analysis.
# Aβ40 [2] = biological target: T1, Aβ40; experiment: Isothermal titration calorimetry (ITC); type: binding
# Protocol: The ligand solution (10 μL) was titrated into the Aβ40 solution (1.4 mL) at 25° C. over 1 second with 25 injections with a constant interval of […] a 250 μL syringe rotating at 310 rpm. In a control experiment, the identical titrant solution was injected into the same buffer used with Aβ40 to measure the heat of dilution.
# A reasonable heat of binding value was calculated by subtracting the heat of dilution value from the overall heat change. Titration data were analyzed with the MicroCal Origin (v. 7.0). The values of Ka (association constant) and […] each ligand upon binding to Aβ40 was determined from a proper fitting model. The binding curves were best fit to a sequential binding model with three binding sites. The values of −TΔS and ΔG were calculated from the Gibb's free energy relationship [(ΔG=ΔH−TΔS; ΔG=−RT ln(Ka)].
# [3] = biological target: T2, Cu(II)-loaded Aβ42 fibrils (Homo sapiens, UniProt P05067); experiment: Cu K-edge X-ray absorption spectroscopy; details: DMPD 2 equivalents, 24 hours, anaerobic
# T2 construct: Aβ40 and Aβ42 were purchased from AnaSpec (Fremont, Calif., USA); purchased AnaSpec
# Protocol: Aβ42 was monomerized according to the methods previously described (Biochemistry 44, 5478-5487, 2005; J. Am. Chem. Soc. 126, 13534-13538, 2004), and fibrils of Aβ42 were grown according to protocols known in the art (Biochemistry, 47, 5006-5016, 2008). Following monomerizatino of fibrillization, all samples were treated under an anaerobic atmosphere (N2) in a COY anaerobic chamber (COY Laboratory, Grass Lake, Mich., USA).
# Aβ42 was dissolved in a mixture of 10 mM of N-ethylmorpholine buffer (pH 7.4) and glycerol (used as a deicing agent) that were mixed at a ratio of 4:1, and then, an equivalent amount of CuCl2 was added thereto. Aβ42 monomers were maintained at 5° C., and all procedures performed rapidly to avoid aggregation. […]
# Following the reaction with DMPD, the solutions were injected into Lucite sample holders with Kapton tape windows, and then, quickly frozen in liquid nitrogen. All data were recorded on beamline X-3b at the National Synchrotron Light Source (Brookhaven National Laboratories, Upton, N.Y., USA). […]
# Data were collected as fluorescence spectra using a Canberra 31 element Ge solid-state detector with a 3 micron Ni filter placed between the sample and detector, and calibrated against a simultaneously collected spectrum of Cu-foil (first inflection point 8980.3 eV). […]
# Aβ42 = experiment: Cerebral Aβ42 by ELISA in 5×FAD mice; type: in vivo, mouse; details: 1 mg/kg/day intraperitoneal, 30 days
# From the text: (§1) 5×FAD mice were selected for this study since they develop early and severe phenotypes of AD and behavioral dysfunction.
# (§2) Cerebral Aβ peptides were quantified by the enzyme-linked immunosorbent assay (ELISA).
# [4] = tested on: SK-N-BE(2)-M17 (M17) cell line; experiment: Cell viability (MTT) of Aβ40- or metal-Aβ40-treated M17 cells; type: cell-based, human; details: Aβ:metal:ligand 10:10:20 μM, 24 hours, relative to the untreated cells
# Protocol: The human neuroblastoma, i.e., SK-N-BE(2)-M17 (M17) cell line, was purchased from the American Type Culture Collection (ATCC, Manassas, Va., USA).
# The cell line was maintained in media containing Minimum Essential Media (MEM; GIBCO, Life Technologies, Grand Island, N.Y., USA) and Ham's F12K Kaighn's Modification Media (F12K; GIBCO) at a ratio of 1:1, 10% (v/v) fetal bovine serum (FBS; Atlanta Biologicals, Flowery Branch, Ga., USA), 100 U/mL penicillin (GIBCO), and […] streptomycin (GIBCO). The cells were grown and maintained at a temperature of 37° C. in a humidified atmosphere with 5% CO2.
# After completing the incubation at a temperature of 37° C. for 24 hours, 25 μL of [3-(4,5-dimethylthiazol-2-yl)-2,5-diphenyltetrazolium bromide; 5 mg/mL in phosphate buffered saline (PBS), pH7.4, GIBCO] (MTT) was added to each well, and then, the plates were incubated at a temperature of 37° C. for 4 hours.
# Formazan produced by the cells was dissolved in a solution containing N,N-dimethylformamide (DMF, 50% v/v aq, pH 4.5) and sodium dodecyl sulfate (SDS, 20% w/v) overnight at room temperature. Subsequently, absorbance at 600 nm was measured on a microplate reader.
# amyloid plaques = experiment: Histopathological evaluation of amyloid deposition load in 5×FAD mice; type: in vivo, mouse; details: 1 mg/kg/day intraperitoneal, 30 days
# From the text: as §1
# Aβ40/Aβ42 = experiment: Inhibition of formation of Aβ aggregation (gel electrophoresis/Western blot, TEM); type: biochemical
# Protocol: Aβ40 or Aβ42 was dissolved in ammonium hydroxide (NH4OH, 1% v/v aq), and then, aliquoted, lyophilized overnight, and stored at a temperature of −80° C. For experiments described herein, a stock solution of Aβ was prepared by dissolving lyophilized peptide in 1% NH4OH (10 μL) and diluted with deionized distilled water (ddH2O).
# The concentration of Aβ peptides in the solution was determined by measuring the absorbance of the solution at 280 nm (E=1450 M^−1 cm^−1 for Aβ40; and ε=1490 M^−1 cm^−1 for Aβ42).
# (§3) The peptide stock solution was diluted to a final concentration of 25 μM in Chelex-treated buffered solution containing [4-(2-hydroxyethyl)-1-piperazine ethane sulfonic acid; […]; pH 6.6 for Cu(II) samples; pH 7.4 for metal-free and Zn(II) samples] (HEPES) and NaCl ([…]).
# (§4) The samples from studies on the inhibition of formation of Aβ aggregation and the breakdown of Aβ aggregation were analyzed by gel electrophoresis with Western blotting using an anti-Aβ antibody (6E10).
# Each sample (10 μL) was separated on a 10-20% Tris-tricine gel (Invitrogen, Grand island, NY, USA), and the protein samples obtained therefrom were transferred onto a nitrocellulose membrane which was blocked with bovine serum albumin (BSA, 3% w/v, Sigma-Aldrich, St. Louis, Mo., USA) in Tris-buffered saline containing 0.1% Tween-20 (TBS-T; 1.00 mM Tris base, pH 8.0, 1.50 mM NaCl) at room temperature for 2 hours. […]
# Aβ40 [5] = experiment: Cerebral Aβ40 by ELISA in 5×FAD mice; type: in vivo, mouse; details: 1 mg/kg/day intraperitoneal, 30 days
# From the text: as §1, §2
# [6] = Gross appearance and body weight of 5×FAD mice; type: in vivo, mouse; details: at conclusion of 30-day treatment, 1 mg/kg/day intraperitoneal
# From the text: as §1
# 5×FAD mice = experiment: Morris water maze test in 5×FAD mice; type: in vivo, mouse
# Protocol: Three hours after the final Morris water maze test, to confirm the performance of long-term memory retention, the probe trials, where the escape platform was removed, was carried out, and the mice located its previous position in the water for 60 seconds.
# Aβ40/Aβ42 aggregates [7] = experiment: Breakdown of preformed Aβ aggregation (gel electrophoresis/Western blot, TEM); type: biochemical; details: Aβ preincubated 24 hours at 37° C., then DMPD 50 μM
# Protocol: as §3, §4
# (§5) Each sample (10 μL) was separated on a 10-20% Tris-tricine gel (Invitrogen, Grand island, NY, USA), and the protein samples obtained therefrom were transferred onto a nitrocellulose membrane which was blocked with bovine serum albumin (BSA, 3% w/v, Sigma-Aldrich, St. Louis, Mo., USA) in Tris-buffered saline containing 0.1% Tween-20 (TBS-T; 1.00 mM Tris base, pH 8.0, 1.50 mM NaCl) at room temperature for 2 hours.
# (§6) Afterwards, the membranes were incubated with a primary antibody (6E10, Covance, Princeton, N.J., USA; 1:2000) in a solution of 2% w/v BSA (in TBS-T) overnight at 4° C. After washing with TBS-T (three times, each for 10 minutes), the horseradish peroxidase-conjugated goat antimouse secondary antibody (1:5000; Cayman Chemical Company, Ann Arbor, Mich., USA) in 2% w/v BSA (in TBS-T) was added for 1 hour at room temperature. […]
# Aβ40/Aβ42 aggregates [8] = biological target: T3, Aβ40/Aβ42 aggregates (Homo sapiens, UniProt P05067); experiment: as above; type: biochemical; details: regardless of presence or absence of metals
# T3 construct: Aβ40 and Aβ42 were purchased from AnaSpec (Fremont, Calif., USA); purchased AnaSpec
# Protocol: as §3, §4, §5, §6
# [9] = sequential binding model, three sites, 25° C., pH 7.4
# [10] = probe trial 60 seconds, three hours after final test, vs vehicle-treated 5×FAD mice
# T1 sequence (P05067 672-711 limits assumed): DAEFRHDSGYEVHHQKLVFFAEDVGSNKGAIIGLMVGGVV
# T2 sequence (P05067 672-713 limits assumed): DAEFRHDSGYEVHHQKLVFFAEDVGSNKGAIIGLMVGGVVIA
# T3 sequence (P05067 672-713): as the sequence (P05067 672-713 limits assumed) above
smiles,measurement,setting,value
"O=C1C=CC(=O)C=C1 [BQ, benzoquinone]",binding to Aβ40 (MS),Aβ40 [1]; identical conditions as DMPD,binds to Aβ40
same,mass added to Aβ40 on ligand treatment (mass shift),"Aβ40 [1]; ligand 50 μM, Aβ40 25 μM, 24 hours",104.1±0.1 Da
"CN(C)c1ccc(N)cc1 [DMPD, N,N-dimethyl-p-phenylenediamine]",TΔS1,"Aβ40 [2]; calculated, ΔG=ΔH−TΔS",28.5 ± 0.84 kJ/mol
same,TΔS2,"Aβ40 [2]; calculated, ΔG=ΔH−TΔS",31.3 ± 0.37 kJ/mol
same,TΔS3,"Aβ40 [2]; calculated, ΔG=ΔH−TΔS",-8.90 ± 0.65 kJ/mol
same,ΔG1,"Aβ40 [2]; calculated, ΔG=−RT ln(Ka)",-31.1 ± 0.77 kJ/mol
same,ΔG2,"Aβ40 [2]; calculated, ΔG=−RT ln(Ka)",-26.5 ± 0.16 kJ/mol
same,ΔH1,"Aβ40 [2]; sequential binding model, site 1",-2.63 ± 0.35 kJ/mol
same,ΔH2,"Aβ40 [2]; sequential binding model, site 2",4.79 ± 3.35 kJ/mol
same,ΔH3,"Aβ40 [2]; sequential binding model, site 3",-35.0 ± 6.37 kJ/mol
same,Ka1,Aβ40 [2]; [9],2.85 ± 0.88 × 10^5 M^−1
same,Ka2,Aβ40 [2]; [9],4.34 ± 2.88 × 10^4 M^−1
same,Ka3,Aβ40 [2]; [9],3.73 ± 2.22 × 10^4 M^−1
same,effect on Cu(II) in Cu(II)-loaded Aβ42 fibrils,[3],complete reduction of Cu(II)
same,reduction of FA-soluble Aβ42,Aβ42,~32%
same,reduction of SDS-soluble Aβ42,Aβ42,~67%
same,"decrease of total level of Aβ42 (PBS-, SDS- and FA-soluble)",Aβ42; vs vehicle-treated,~47%
same,increase of viability,[4],10-20%
same,reduction of load of APP/Aβ-immunoreactive 4G8-stained amyloid plaques,amyloid plaques,ca. 23%
same,reduction of load of Congo red-stained amyloid plaques,amyloid plaques,~20%
same,effect on formation of metal-free or metal-induced Aβ aggregates,"Aβ40/Aβ42; DMPD 50 μM, Aβ 25 μM, with or without CuCl2/ZnCl2 25 μM, 37° C., 24 hours, aerobic",inhibited the formation of Aβ aggregates
same,modulation of Aβ aggregation under anaerobic condition,Aβ40/Aβ42; anaerobic condition,not observed
same,reduction of FA-soluble Aβ40,Aβ40 [5],ca. 50%
same,reduction of SDS-soluble Aβ40,Aβ40 [5],ca. 68%
same,"decrease of total level of Aβ40 (PBS-, SDS- and FA-soluble)",Aβ40 [5]; vs vehicle-treated,ca. 65%
same,gross appearance or body weight versus vehicle-treated mice,[6],no significant difference
same,ion mobility arrival time of Aβ40 complex versus apo state,"Aβ40 [1]; IM-MS, 4+ charge state",significantly decreased
same,spatial learning and memory capability,"5×FAD mice; final five days of DMPD treatment, hidden platform",prominently improved
same,time in the target quadrant (NW) in probe trial,5×FAD mice; [10],significantly more time
same,time to reach the platform area in probe trial,5×FAD mice; [10],distinguishably less time
same,transformation of preformed metal-free and metal-Aβ40/Aβ42 aggregates,Aβ40/Aβ42 aggregates [7],significant effects on the transformation; also recorded: modified the formed Aβ aggregates to relatively smaller and less structured Aβ aggregates
same,reactivity toward Aβ42 aggregates,Aβ40/Aβ42 aggregates [8],less reactivity toward Aβ42 aggregates
